{"source": "paper PMC8799717", "about": "“Pharmacological targeting PIKfyve and tubulin as an effective treatment strategy for double-hit lymphoma” (Cell Death Discovery, 2022)", "test_in_all_cases": "biochemical", "design_in_all_cases": "KINOMEscan active-site-directed competition binding panel, 468 kinases, percent of DMSO control at 1 uM", "details_in_all_cases": "KINOMEscan binding, percent of DMSO control; read-out: Ctrl%", "key": {"TLK2": {"target": "TLK2 (Homo sapiens, UniProt Q86UE8)"}, "[1]": {"target": "T1, ABL1(Q252H)-phosphorylated (Homo sapiens, UniProt P00519, Q252H)", "T1 construct": "phosphorylated"}, "SYK": {"target": "SYK (Homo sapiens, UniProt P43405)"}, "MARK2": {"target": "MARK2 (Homo sapiens, UniProt Q7KZI7)", "sequence (Q7KZI7 whole entry)": "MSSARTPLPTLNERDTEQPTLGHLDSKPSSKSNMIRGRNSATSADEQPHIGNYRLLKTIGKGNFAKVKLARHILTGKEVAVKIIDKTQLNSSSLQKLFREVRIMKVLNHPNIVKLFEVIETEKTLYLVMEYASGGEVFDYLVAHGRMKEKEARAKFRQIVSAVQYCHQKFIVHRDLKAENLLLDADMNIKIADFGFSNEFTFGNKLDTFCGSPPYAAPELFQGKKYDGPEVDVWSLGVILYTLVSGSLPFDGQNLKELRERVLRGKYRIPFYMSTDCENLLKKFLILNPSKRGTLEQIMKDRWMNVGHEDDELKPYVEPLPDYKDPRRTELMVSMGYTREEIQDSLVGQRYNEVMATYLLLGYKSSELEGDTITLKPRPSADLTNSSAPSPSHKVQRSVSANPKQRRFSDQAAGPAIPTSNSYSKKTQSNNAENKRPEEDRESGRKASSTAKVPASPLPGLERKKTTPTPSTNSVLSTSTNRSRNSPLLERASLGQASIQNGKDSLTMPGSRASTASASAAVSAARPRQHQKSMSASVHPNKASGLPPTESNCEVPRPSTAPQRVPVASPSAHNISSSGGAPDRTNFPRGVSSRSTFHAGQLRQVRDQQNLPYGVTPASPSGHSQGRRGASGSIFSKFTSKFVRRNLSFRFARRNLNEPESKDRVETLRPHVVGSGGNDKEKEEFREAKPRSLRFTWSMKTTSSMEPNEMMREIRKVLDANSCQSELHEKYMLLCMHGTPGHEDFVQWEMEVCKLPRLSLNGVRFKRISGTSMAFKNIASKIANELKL"}, "ACVRL1": {"target": "ACVRL1 (Homo sapiens, UniProt P37023)"}, "BRAF": {"target": "BRAF (Homo sapiens, UniProt P15056)"}, "ULK2": {"target": "ULK2 (Homo sapiens, UniProt Q8IYT8)", "sequence (Q8IYT8 whole entry)": "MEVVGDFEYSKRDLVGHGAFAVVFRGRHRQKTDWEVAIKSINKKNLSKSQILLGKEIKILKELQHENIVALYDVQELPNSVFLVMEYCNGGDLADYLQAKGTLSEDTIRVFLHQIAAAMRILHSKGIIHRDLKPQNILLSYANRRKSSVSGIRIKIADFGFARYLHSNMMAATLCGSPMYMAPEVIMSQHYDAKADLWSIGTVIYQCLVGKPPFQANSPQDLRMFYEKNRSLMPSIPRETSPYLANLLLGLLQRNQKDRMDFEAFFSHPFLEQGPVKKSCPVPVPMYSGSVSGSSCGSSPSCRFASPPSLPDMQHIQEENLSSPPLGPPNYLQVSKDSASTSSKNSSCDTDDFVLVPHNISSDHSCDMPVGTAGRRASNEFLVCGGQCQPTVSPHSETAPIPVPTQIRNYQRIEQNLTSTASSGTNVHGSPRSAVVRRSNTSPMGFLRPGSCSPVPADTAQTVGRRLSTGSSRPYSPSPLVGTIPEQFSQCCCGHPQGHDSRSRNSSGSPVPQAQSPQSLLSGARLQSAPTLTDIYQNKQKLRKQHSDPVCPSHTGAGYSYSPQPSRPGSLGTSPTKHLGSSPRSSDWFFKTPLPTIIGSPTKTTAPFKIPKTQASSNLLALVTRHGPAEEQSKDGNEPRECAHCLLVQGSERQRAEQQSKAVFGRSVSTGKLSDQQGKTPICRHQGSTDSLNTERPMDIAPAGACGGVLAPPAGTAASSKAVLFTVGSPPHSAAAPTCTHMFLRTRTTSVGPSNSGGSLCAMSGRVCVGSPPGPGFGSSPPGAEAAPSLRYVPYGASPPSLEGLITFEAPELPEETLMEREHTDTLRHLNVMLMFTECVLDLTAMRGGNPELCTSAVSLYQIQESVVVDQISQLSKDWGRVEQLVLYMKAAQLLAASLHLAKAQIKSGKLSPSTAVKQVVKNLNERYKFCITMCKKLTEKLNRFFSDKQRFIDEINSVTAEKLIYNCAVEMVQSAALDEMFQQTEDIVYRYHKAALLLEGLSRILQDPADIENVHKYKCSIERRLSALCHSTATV"}, "[2]": {"target": "T2, RPS6KA5(Kin.Dom.2-C-terminal) (Homo sapiens, UniProt O75582)", "T2 construct": "Kin.Dom.2-C-terminal"}, "SRMS": {"target": "SRMS (Homo sapiens, UniProt Q9H3Y6)", "sequence (Q9H3Y6 whole entry)": "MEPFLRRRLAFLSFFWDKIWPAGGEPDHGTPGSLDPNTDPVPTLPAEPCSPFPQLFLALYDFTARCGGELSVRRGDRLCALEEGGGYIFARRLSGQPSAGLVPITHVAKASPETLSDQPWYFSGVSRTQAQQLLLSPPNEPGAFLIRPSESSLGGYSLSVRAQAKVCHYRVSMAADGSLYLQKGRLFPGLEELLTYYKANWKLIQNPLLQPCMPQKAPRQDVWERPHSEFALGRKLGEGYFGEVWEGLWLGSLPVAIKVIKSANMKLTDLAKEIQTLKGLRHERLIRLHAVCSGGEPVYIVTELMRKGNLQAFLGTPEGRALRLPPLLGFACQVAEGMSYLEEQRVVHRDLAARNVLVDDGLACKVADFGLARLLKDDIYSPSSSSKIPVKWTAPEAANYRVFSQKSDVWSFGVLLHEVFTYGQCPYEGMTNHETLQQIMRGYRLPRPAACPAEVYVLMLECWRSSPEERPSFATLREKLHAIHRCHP"}, "EPHB3": {"target": "EPHB3 (Homo sapiens, UniProt P54753)"}, "ARK5": {"target": "T3, ARK5 (Homo sapiens, UniProt O60285)", "T3 construct": "gene NUAK1"}, "RET": {"target": "RET (Homo sapiens, UniProt P07949)"}, "CDKL3": {"target": "CDKL3 (Homo sapiens, UniProt Q8IVW4)", "sequence (Q8IVW4 whole entry)": "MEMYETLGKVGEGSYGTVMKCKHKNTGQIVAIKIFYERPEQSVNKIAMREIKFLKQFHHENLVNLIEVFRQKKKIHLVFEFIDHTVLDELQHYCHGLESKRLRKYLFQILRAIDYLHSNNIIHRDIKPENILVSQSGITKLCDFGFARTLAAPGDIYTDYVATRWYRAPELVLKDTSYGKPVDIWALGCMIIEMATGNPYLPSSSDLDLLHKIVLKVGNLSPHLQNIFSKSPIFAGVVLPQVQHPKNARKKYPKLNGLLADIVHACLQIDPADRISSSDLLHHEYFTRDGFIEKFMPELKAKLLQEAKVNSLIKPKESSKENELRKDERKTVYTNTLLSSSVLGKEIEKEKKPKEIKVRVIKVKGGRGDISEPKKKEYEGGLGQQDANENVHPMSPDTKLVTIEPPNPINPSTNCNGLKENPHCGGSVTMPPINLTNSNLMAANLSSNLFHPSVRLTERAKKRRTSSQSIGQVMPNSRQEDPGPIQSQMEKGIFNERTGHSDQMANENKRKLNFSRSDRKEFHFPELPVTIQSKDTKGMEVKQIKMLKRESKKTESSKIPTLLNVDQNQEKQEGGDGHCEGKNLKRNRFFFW"}, "NEK6": {"target": "NEK6 (Homo sapiens, UniProt Q9HC98)"}, "CDK3": {"target": "CDK3 (Homo sapiens, UniProt Q00526)"}, "PRKD1": {"target": "PRKD1 (Homo sapiens, UniProt Q15139)", "sequence (Q15139 whole entry)": "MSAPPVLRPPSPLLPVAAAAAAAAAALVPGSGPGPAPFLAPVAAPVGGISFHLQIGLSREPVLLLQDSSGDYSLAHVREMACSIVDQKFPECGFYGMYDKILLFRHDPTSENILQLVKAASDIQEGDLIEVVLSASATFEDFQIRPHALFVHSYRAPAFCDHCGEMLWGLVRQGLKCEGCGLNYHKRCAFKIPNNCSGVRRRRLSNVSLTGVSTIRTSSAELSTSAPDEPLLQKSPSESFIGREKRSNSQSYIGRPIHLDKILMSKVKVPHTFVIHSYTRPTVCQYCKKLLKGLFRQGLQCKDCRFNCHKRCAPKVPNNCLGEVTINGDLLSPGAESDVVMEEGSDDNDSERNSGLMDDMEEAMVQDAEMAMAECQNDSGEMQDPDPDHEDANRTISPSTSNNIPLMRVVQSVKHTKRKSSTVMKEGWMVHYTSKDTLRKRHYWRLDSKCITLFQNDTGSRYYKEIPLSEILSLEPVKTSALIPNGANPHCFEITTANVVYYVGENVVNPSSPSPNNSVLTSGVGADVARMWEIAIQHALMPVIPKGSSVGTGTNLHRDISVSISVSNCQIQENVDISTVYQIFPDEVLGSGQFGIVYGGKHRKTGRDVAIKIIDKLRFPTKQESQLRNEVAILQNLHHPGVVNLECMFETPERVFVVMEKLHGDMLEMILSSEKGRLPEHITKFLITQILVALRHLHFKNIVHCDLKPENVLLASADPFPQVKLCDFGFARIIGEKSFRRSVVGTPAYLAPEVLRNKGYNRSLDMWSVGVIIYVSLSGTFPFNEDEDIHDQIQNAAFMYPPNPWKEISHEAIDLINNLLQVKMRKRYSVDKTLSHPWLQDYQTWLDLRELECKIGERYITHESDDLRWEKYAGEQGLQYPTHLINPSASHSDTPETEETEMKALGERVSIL"}, "ASK1": {"target": "T4, ASK1 (Homo sapiens, UniProt Q99683)", "T4 construct": "gene MAP3K5"}, "ABL1-nonphosphorylated": {"target": "T5, ABL1-nonphosphorylated (Homo sapiens, UniProt P00519)", "T5 construct": "nonphosphorylated"}, "p38-gamma": {"target": "T6, p38-gamma (Homo sapiens, UniProt P53778)", "T6 construct": "gene MAPK12"}, "PIK3CA(E545K)": {"target": "PIK3CA(E545K) (Homo sapiens, UniProt P42336, E545K)"}, "[3]": {"target": "EGFR(L747-S752del, P753S) (Homo sapiens, UniProt P00533, DEL747-752/P753S)"}, "[4]": {"target": "T7, ABL1(Y253F)-phosphorylated (Homo sapiens, UniProt P00519, Y253F)", "T7 construct": "phosphorylated"}, "MYLK4": {"target": "MYLK4 (Homo sapiens, UniProt Q86YV6)", "sequence (Q86YV6 whole entry)": "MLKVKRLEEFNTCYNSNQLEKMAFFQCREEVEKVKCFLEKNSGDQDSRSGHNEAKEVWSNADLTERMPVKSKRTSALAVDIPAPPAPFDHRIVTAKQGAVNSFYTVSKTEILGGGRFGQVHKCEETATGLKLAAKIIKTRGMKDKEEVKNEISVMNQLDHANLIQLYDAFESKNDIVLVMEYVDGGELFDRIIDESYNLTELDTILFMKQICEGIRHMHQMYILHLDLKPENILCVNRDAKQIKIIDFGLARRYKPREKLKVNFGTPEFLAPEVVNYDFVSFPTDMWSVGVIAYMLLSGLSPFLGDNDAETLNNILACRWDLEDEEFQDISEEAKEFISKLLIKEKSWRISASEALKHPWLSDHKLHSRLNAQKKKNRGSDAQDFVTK"}, "ZAP70": {"target": "ZAP70 (Homo sapiens, UniProt P43403)", "sequence (P43403 whole entry)": "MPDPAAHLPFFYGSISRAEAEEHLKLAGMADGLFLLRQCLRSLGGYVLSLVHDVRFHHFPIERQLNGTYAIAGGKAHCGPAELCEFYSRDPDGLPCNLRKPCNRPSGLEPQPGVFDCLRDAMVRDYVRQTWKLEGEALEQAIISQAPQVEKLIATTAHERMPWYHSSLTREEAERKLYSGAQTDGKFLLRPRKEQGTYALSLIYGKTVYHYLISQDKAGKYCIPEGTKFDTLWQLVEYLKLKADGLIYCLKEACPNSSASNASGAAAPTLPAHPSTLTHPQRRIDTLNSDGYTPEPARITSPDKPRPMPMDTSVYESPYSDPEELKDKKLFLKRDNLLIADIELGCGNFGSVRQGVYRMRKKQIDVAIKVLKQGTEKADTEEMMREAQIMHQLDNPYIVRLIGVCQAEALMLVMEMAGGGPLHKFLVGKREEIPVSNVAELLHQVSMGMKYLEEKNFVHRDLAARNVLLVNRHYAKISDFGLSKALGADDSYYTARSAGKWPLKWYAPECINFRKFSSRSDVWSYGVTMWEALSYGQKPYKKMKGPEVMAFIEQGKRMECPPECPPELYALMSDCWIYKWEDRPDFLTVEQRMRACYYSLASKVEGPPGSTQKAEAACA"}}, "data": [{"smiles": "Cc1ccc(NC(=O)c2cccc(C(F)(F)F)c2)cc1Nc1cc(-c2cccnc2)nc2[nH]ccc12", "note": "[HZX-02-059]", "values": [{"measurement": "remaining binding at 1 µM", "setting": "TLK2", "value": 89, "unit": "%"}, {"measurement": "remaining binding at 1 µM", "setting": "[1]", "value": 61, "unit": "%"}, {"measurement": "remaining binding at 1 µM", "setting": "SYK", "value": 100, "unit": "%"}, {"measurement": "remaining binding at 1 µM", "setting": "MARK2", "value": 78, "unit": "%"}, {"measurement": "remaining binding at 1 µM", "setting": "ACVRL1", "value": 75, "unit": "%"}, {"measurement": "remaining binding at 1 µM", "setting": "BRAF", "value": 18, "unit": "%"}, {"measurement": "remaining binding at 1 µM", "setting": "ULK2", "value": 99, "unit": "%"}, {"measurement": "remaining binding at 1 µM", "setting": "[2]", "value": 99, "unit": "%"}, {"measurement": "remaining binding at 1 µM", "setting": "SRMS", "value": 100, "unit": "%"}, {"measurement": "remaining binding at 1 µM", "setting": "EPHB3", "value": 48, "unit": "%"}, {"measurement": "remaining binding at 1 µM", "setting": "ARK5", "value": 100, "unit": "%"}, {"measurement": "remaining binding at 1 µM", "setting": "RET", "value": 90, "unit": "%"}, {"measurement": "remaining binding at 1 µM", "setting": "CDKL3", "value": 84, "unit": "%"}, {"measurement": "remaining binding at 1 µM", "setting": "NEK6", "value": 98, "unit": "%"}, {"measurement": "remaining binding at 1 µM", "setting": "CDK3", "value": 100, "unit": "%"}, {"measurement": "remaining binding at 1 µM", "setting": "PRKD1", "value": 96, "unit": "%"}, {"measurement": "remaining binding at 1 µM", "setting": "ASK1", "value": 93, "unit": "%"}, {"measurement": "remaining binding at 1 µM", "setting": "ABL1-nonphosphorylated", "value": 14, "unit": "%"}, {"measurement": "remaining binding at 1 µM", "setting": "p38-gamma", "value": 92, "unit": "%"}, {"measurement": "remaining binding at 1 µM", "setting": "PIK3CA(E545K)", "value": 63, "unit": "%"}, {"measurement": "remaining binding at 1 µM", "setting": "[3]", "value": 80, "unit": "%"}, {"measurement": "remaining binding at 1 µM", "setting": "[4]", "value": 49, "unit": "%"}, {"measurement": "remaining binding at 1 µM", "setting": "MYLK4", "value": 90, "unit": "%"}, {"measurement": "remaining binding at 1 µM", "setting": "ZAP70", "value": 76, "unit": "%"}]}]}
